4 compounds from PMC7127101 (Bioorganic & Medicinal Chemistry Letters, 2010) can be followed below.

In this assay the target is SARS-CoV 3CL^pro (Severe acute respiratory syndrome coronavirus, UniProt P0C6X7). It counts as biochemical.

`CC1=C(O)C(=O)C=C2C1=CC=C1[C@@]2(C)CC[C@@]2(C)[C@@H]3C[C@](C)(C(=O)O)CC[C@]3(C)CC[C@]12C` [Compound 1, celastrol]: the Inhibition type entry was “Competitive (4.2 ± 0.6)”.

Take `COC(=O)[C@]1(C)CC[C@]2(C)CC[C@]3(C)C4=CC=C5C(=CC(=O)C(O)=C5C)[C@]4(C)CC[C@@]3(C)[C@@H]2C1` [Compound 2, pristimerin]: the Inhibition type result is recorded as “Competitive (3.1 ± 0.0)”.

In the case of `CC1=C(O)C(=O)C=C2C1=CC=C1[C@@]2(C)CC[C@@]2(C)[C@@H]3C[C@@H](C)C(=O)C[C@]3(C)CC[C@]12C` [Compound 3, tingenone], the Inhibition type entry was “Competitive (4.0 ± 0.1)”.

Take `CC1=CC[C@]2(C)CC[C@]3(C)C4=CC=C5C(=CC(=O)C(O)=C5C)[C@]4(C)CC[C@@]3(C)[C@@H]2C1` [Compound 4, iguesterin]: the Inhibition type result was “Competitive (0.8 ± 0.2)”, the V max was 44.4 ± 6.2 intensity min^−1 and the “fold smaller IC50 value compared with that of reference compounds” value is 10 fold.
